“Also recorded” adds a separate entry of the source.
What was measured:
[1] = Pharmacokinetic study: plasma cannabinoids after single oral gavage of full-spectrum cannabis extract or individual cannabinoid; conditions: for Detection in plasma following oral administration of the full-spectrum extract / tmax / AUC / t1/2 / Cmax / Total plasma exposure in full-spectrum extract relative to individual compound, fold lower: mouse plasma; for Detection in plasma following oral administration of the full-spectrum extract: single oral dose of extract; for Total plasma exposure in full-spectrum extract relative to individual compound, fold lower: equivalent doses
Description: Drugs were administered by oral gavage in a volume of 5 mL/kg. Wildtype male and female mice (postnatal day 21–28, P21-28) received a single oral gavage of either the full-spectrum cannabis extract or an individual cannabinoid. Cannabinoid doses within the full-spectrum extract or as an individual cannabinoid were as follows in mg/kg: CBDA and Δ^9-THCA, 50; CBD, 25; Δ^9-THC, 15; CBC, 9; CBDVA and CBGA, 7; CBN, 2.5; CBG, 1.5; CBDV and Δ^9-THCV, < 1 (Fig. 1a). At selected time points (15–240 min), mice were anesthetized with isoflurane and whole blood was collected by cardiac puncture. Plasma was isolated by centrifugation (9000 g for 10 min, 4 °C) and stored at − 80 °C until assayed.
Concentrations of cannabinoids in plasma samples were quantified as described previously, [24], [58]. […] The organic layer was isolated by centrifugation (4000 g for 10 min) and evaporated to dryness with N2. Samples were reconstituted in acetonitrile and 0.1% formic acid in water (1:3.3, v/v) for supported-liquid extraction (SLE) with methyl tert-butyl ether (MTBE) using Biotage Isolute SLE+ columns (Uppsala, SWE). […] Quantification of cannabinoids was achieved by comparing samples to standards prepared with known amounts of drug.
Plasma concentrations at each time point were averaged and pharmacokinetic parameters were calculated by noncompartmental analysis. Elimination rate constants were determined by linear regression of the terminal component of the concentration–time curve using GraphPad Prism 8.2 (La Jolla, USA). The log-linear trapezoidal method was used to calculated total drug exposure (area under concentration–time curve) using equations described previously.

wildtype MDCK cells = experiment: Bidirectional transwell transport assay, wildtype MDCK cell monolayers; conditions: wildtype MDCK cells, 10 µM cannabinoid; for P (A > B): apical to basolateral
Description: (§1) We first aimed to determine whether the cannabinoids found in the full-spectrum cannabis extract were substrates of P-glycoprotein and BCRP by using MDCK cells expressing human P-glycoprotein or BCRP in vitro. Transwell assays were conducted to assess bidirectional transport of the cannabinoids detected in plasma following administration of the full-spectrum cannabis extract (CBD, CBDA, CBDVA, CBGA, Δ^9-THC and Δ^9-THCA), including the respective neutral compounds (CBDV and CBG) across wildtype, BCRP and P-glycoprotein MDCK cell monolayers. […] BCRP and P-glycoprotein preferentially transport substrates in the B > A direction.
(§2) Media in the donor chamber was then replaced with that containing 10 µM of an individual cannabinoid in the presence of either vehicle or inhibitor and returned to 37 °C. Aliquots (25 or 50 µL) were removed from the accepter chamber at 60, 120, 180 and 240 min.
(§3) Cannabinoids were analyzed as described above.

BCRP [2] = target: T1, BCRP (Homo sapiens, UniProt Q9UNQ0); experiment: Bidirectional transwell substrate assay, MDCK cells expressing BCRP (with or without elacridar); conditions: for P (A > B): apical to basolateral; for P (B > A): basolateral to apical; for BCRP substrate status: human BCRP MDCK cells vs wildtype, with elacridar control; for efflux ratio at 240 min, 10 µM: human, r (transport efflux ratio)
T1 sequence (Q9UNQ0 1-655): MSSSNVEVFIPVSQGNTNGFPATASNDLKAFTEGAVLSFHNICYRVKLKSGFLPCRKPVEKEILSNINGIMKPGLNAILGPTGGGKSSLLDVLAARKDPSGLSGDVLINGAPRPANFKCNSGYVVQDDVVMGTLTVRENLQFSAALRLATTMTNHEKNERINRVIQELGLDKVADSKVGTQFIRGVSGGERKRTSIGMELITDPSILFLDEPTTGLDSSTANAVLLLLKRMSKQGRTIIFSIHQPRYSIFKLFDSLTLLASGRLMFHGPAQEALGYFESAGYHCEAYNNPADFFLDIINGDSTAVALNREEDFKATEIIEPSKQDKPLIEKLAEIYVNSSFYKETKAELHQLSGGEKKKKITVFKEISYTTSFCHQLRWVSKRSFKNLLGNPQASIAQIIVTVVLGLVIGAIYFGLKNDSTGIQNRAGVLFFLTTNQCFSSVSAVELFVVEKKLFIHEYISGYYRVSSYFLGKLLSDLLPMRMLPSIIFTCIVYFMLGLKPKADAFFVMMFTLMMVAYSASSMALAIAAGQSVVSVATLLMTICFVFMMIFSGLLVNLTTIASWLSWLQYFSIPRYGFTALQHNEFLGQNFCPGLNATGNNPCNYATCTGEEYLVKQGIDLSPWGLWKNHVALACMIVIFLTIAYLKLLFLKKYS
Description: as §1, §2, §3

P-glycoprotein = P-glycoprotein (Homo sapiens, UniProt P08183); experiment: Bidirectional transwell substrate assay, MDCK cells expressing P-glycoprotein; conditions: for P (A > B) / P (B > A) / r (transport efflux ratio) / efflux ratio at 240 min, 10 µM: P-glycoprotein MDCK cells, 10 µM cannabinoid; for P (A > B): apical to basolateral; for P (B > A): basolateral to apical; for r (transport efflux ratio) / efflux ratio at 240 min, 10 µM: substrate threshold 2.5; for P-glycoprotein substrate status: human P-glycoprotein MDCK cells vs wildtype; for efflux ratio at 240 min, 10 µM: human, MDCK-MDR1, r (transport efflux ratio)
Description: as §1, §2, §3

BCRP [3] = target: T1, BCRP; experiment: Inhibition of BCRP-mediated transport of CBDA by cannabinoids (transwell, BCRP MDCK cells); conditions: BCRP MDCK cells
Description: Cannabinoids were tested at 10 µM. […] Data are expressed as means ± SEM, with n = 4 per time point. […] Schematic created using BioRender.com.
as §3

BCRP [4] = target: T1, BCRP; experiment: Inhibition of BCRP-mediated transport of prazosin (transwell, BCRP MDCK cells)
[5] = Bidirectional transwell transport assay, wildtype MDCK cell monolayers; conditions: dog, MDCK
Description: as §1, §2, §3

[6] = BCRP MDCK cells, 10 µM cannabinoid
[7] = BCRP MDCK cells, 10 µM cannabinoid, substrate threshold 1.5
[8] = oral, administered as individual cannabinoid, doses mg/kg: CBD 25, CBDA 50, CBDVA 7, CBGA 7, THC 15, THCA 50
[9] = oral, administered as individual cannabinoid, doses mg/kg: CBD 25, CBDA 50, CBDVA 7, THC 15, THCA 50
[10] = oral, administered in full-spectrum extract, doses mg/kg: CBD 25, CBDA 50, CBDVA 7, CBGA 7, THC 15, THCA 50

Sequence of P-glycoprotein (P08183 whole entry): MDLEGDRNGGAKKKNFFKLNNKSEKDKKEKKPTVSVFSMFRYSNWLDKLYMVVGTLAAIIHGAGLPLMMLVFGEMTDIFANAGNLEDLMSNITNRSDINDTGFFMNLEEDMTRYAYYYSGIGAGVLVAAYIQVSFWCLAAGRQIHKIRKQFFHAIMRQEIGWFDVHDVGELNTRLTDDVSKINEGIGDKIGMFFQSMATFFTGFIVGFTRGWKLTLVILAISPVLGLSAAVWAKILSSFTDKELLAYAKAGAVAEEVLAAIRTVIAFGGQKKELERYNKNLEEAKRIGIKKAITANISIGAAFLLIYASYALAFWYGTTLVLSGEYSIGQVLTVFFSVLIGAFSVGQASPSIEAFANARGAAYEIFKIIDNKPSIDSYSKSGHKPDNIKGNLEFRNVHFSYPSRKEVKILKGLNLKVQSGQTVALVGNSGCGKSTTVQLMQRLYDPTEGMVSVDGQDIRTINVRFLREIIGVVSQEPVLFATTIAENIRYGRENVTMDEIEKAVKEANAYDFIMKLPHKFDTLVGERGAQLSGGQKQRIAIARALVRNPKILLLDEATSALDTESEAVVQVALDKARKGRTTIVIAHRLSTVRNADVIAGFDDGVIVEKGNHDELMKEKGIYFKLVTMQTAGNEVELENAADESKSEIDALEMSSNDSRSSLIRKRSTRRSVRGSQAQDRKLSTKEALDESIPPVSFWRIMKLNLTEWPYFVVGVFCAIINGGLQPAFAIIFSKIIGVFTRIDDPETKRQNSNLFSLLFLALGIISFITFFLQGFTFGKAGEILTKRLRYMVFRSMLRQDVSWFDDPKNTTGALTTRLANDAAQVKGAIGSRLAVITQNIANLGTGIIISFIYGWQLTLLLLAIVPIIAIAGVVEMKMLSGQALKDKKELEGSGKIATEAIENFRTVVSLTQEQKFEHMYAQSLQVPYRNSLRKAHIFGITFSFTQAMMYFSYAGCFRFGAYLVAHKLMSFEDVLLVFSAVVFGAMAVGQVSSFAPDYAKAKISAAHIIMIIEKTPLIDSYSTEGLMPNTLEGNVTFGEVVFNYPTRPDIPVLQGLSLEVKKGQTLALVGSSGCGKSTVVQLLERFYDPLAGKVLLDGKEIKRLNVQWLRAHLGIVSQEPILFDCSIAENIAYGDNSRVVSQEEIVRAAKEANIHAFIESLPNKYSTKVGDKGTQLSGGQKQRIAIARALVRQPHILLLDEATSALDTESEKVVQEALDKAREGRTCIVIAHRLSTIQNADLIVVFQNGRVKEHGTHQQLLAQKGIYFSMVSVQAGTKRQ

Structure (SMILES) | Detection in plasma following oral administration of the full-spectrum extract [1] | P (A > B) (wildtype MDCK cells) | P (A > B) (BCRP [2]; [6]) | P (B > A) (BCRP [2]; [6]) | BCRP substrate status (BCRP [2]) | P (A > B) (P-glycoprotein) | P (B > A) (P-glycoprotein) | P-glycoprotein substrate status (P-glycoprotein) | Total plasma exposure in full-spectrum extract relative to individual compound, fold lower ([1]; oral) | Papp B→A at 240 min, 10 µM [5] [×10⁻⁶ cm/s] | other results
CCCCCc1cc(O)c2c(c1)OC(C)(CCC=C(C)C)C=C2 (stereo not shown) [CBC] | not detected | – | – | – | – | – | – | – | – | – | –
C=C(C)[C@@H]1CCC(C)=C[C@H]1c1c(O)cc(CCC)c(C(=O)O)c1O [CBDVA, cannabidivarinic acid] | detected | 22 ± 3 × 10^−5 cm/s | 24 ± 9 × 10^−5 cm/s | 47 ± 6 × 10^−5 cm/s | BCRP substrates | 14 ± 4 × 10^−5 cm/s | 22 ± 2 × 10^−5 cm/s | not P-glycoprotein substrates | 2–4 × | – | r (transport efflux ratio) (wildtype MDCK cells): 1.1 ± 0.2; P (B > A) (wildtype MDCK cells; basolateral to apical): 25 ± 2 × 10^−5 cm/s; r (transport efflux ratio) (BCRP [2]; [7]): 2.0 ± 0.4; r (transport efflux ratio) (P-glycoprotein): 1.6 ± 0.3; tmax [1, 8]: 0.25 h; AUC [1, 9]: 7459 µg·min/mL; t1/2 [1, 9]: 2.5 h; Cmax ([1]; oral, administered as individual cannabinoid, doses mg/kg: CBDA 50, CBDVA 7, CBGA 7): 26000 ± 2000 ng/mL; AUC [1, 10]: 3844 µg·min/mL; t1/2 [1, 10]: 2 h; tmax [1, 10]: 1 h; Cmax ([1]; oral, administered in full-spectrum extract, doses mg/kg: CBDA 50, CBDVA 7, CBGA 7): 11000 ± 1000 ng/mL; Effect on BCRP-mediated transport of CBDA (BCRP [3]; 10 µM, compared to vehicle): Neither CBD nor CBDVA affected CBDA transport via BCRP; P (A > B) of CBDA in the presence of inhibitor (BCRP [3]; cannabinoids tested at 10 µM): 8 ± 1 × 10^−5 cm/s; P (B > A) of CBDA in the presence of inhibitor (BCRP [3]; cannabinoids tested at 10 µM): 63 ± 4 × 10^−5 cm/s; P (A > B) of prazosin in the presence of inhibitor (BCRP [4]; 10 µM inhibitor, 1 µM prazosin): 15 ± 3 × 10^−2 cm/s; P (B > A) of prazosin in the presence of inhibitor (BCRP [4]; 10 µM inhibitor, 1 µM prazosin): 201 ± 4 × 10^−2 cm/s
CCCCCc1cc(O)c2c(c1)OC(C)(C)c1ccc(C)cc1-2 [CBN, cannabinol] | not detected | – | – | – | – | – | – | – | – | – | –
CCCCCc1cc(O)c(C/C=C(\C)CCC=C(C)C)c(O)c1 [CBG, cannabigerol] | not detected | 12 ± 5 × 10^−5 cm/s | 47 ± 9 × 10^−5 cm/s | 53 ± 10 × 10^−5 cm/s | weak substrates of BCRP | 19 ± 5 × 10^−5 cm/s | 14 ± 2 × 10^−5 cm/s | not P-glycoprotein substrates | – | 100 ± 30 | efflux ratio at 240 min, 10 µM [5]: 0.8 ± 0.5; efflux ratio at 240 min, 10 µM (BCRP [2]; [7]): 1.1 ± 0.3; Effect on BCRP-mediated transport of prazosin (BCRP [4]; 10 µM, compared to vehicle): not prazosin transport
CCCCCc1cc(O)c(C/C=C(\C)CCC=C(C)C)c(O)c1C(=O)O [CBGA, cannabigerolic acid] | detected | – | – | 5 ± 1 × 10^−5 cm/s | not substrates of either BCRP or P-glycoprotein | 5 ± 2 × 10^−5 cm/s | 3 ± 1 × 10^−5 cm/s | not substrates of either BCRP or P-glycoprotein | 2–4 × | 10 ± 10 | efflux ratio at 240 min, 10 µM (P-glycoprotein): 0.7 ± 0.5; AUC ([1]; both, mouse, plasma, po, 7 mg/kg, AUC (does not include terminal phase), administered as individual cannabinoid, CBGA 7 mg/kg): 8670 µg·min/mL; AUC ([1]; both, mouse, plasma, po, AUC, oral, administered in full-spectrum extract, doses mg/kg: CBD 25, CBDA 50, CBDVA 7, CBGA 7, THC 15, THCA 50): 5170 µg·min/mL; Cmax ([1]; both, mouse, plasma, po, Cmax, oral, administered as individual cannabinoid, doses mg/kg: CBDA 50, CBDVA 7, CBGA 7): 48000 ± 2000 ng/mL; Cmax ([1]; both, mouse, plasma, po, Cmax, oral, administered in full-spectrum extract, doses mg/kg: CBDA 50, CBDVA 7, CBGA 7): 12000 ± 1000 ng/mL; half-life ([1]; both, mouse, plasma, po, t1/2, mouse plasma, oral, administered in full-spectrum extract, doses mg/kg: CBD 25, CBDA 50, CBDVA 7, CBGA 7, THC 15, THCA 50): 4.97 h; tmax ([1]; both, mouse, plasma, po, tmax, oral, administered as individual cannabinoid, doses mg/kg: CBD 25, CBDA 50, CBDVA 7, CBGA 7, THC 15, THCA 50): 2 h; tmax ([1]; both, mouse, plasma, po, tmax, oral, administered in full-spectrum extract, doses mg/kg: CBD 25, CBDA 50, CBDVA 7, CBGA 7, THC 15, THCA 50): ≤ 1 h
C=C(C)[C@@H]1CCC(C)=C[C@H]1c1c(O)cc(CCC)cc1O [CBDV, cannabidivarin] | not detected | 43 ± 5 × 10^−5 cm/s | 63 ± 14 × 10^−5 cm/s | 90 ± 9 × 10^−5 cm/s | not considered a substrate of BCRP; also recorded: not substrates of either BCRP or P-glycoprotein | 30 ± 8 × 10^−5 cm/s | 34 ± 3 × 10^−5 cm/s | not substrates of either BCRP or P-glycoprotein | – | 440 ± 50 | efflux ratio at 240 min, 10 µM [5]: 1 ± 0.2; efflux ratio at 240 min, 10 µM (BCRP [2]; [7]): 1.4 ± 0.2; efflux ratio at 240 min, 10 µM (P-glycoprotein): 1.1 ± 0.3
CCCc1cc(O)c2c(c1)OC(C)(C)[C@@H]1CCC(C)=C[C@@H]21 [Δ^9-THCV, Δ^9-tetrahydrocannabivarin] | not detected | – | – | – | – | – | – | – | – | – | –
CCCCCc1cc2c(c(O)c1C(=O)O)C1C=C(C)CCC1C(C)(C)O2 (stereo not shown) [Δ^9-THCA, Δ^9-tetrahydrocannabinolic acid] | detected | – | – | 6 ± 2 × 10^−5 cm/s | not substrates of either BCRP or P-glycoprotein | 17 ± 5 × 10^−5 cm/s | 8 ± 3 × 10^−5 cm/s | not substrates of either BCRP or P-glycoprotein | 2–4 × | – | r (transport efflux ratio) (P-glycoprotein): 0.5 ± 0.4; tmax [1, 8]: 0.5 h; AUC [1, 9]: 173 µg·min/mL; t1/2 [1, 9]: 0.617 h; Cmax ([1]; oral, administered as individual cannabinoid, doses mg/kg: CBD 25, THC 15, THCA 50): 2094 ± 74 ng/mL; AUC [1, 10]: 44 µg·min/mL; t1/2 [1, 10]: 0.767 h; tmax [1, 10]: 0.75 h; Cmax ([1]; oral, administered in full-spectrum extract, doses mg/kg: CBD 25, THC 15, THCA 50): 465 ± 64 ng/mL
